The values below come from patent publication US8673907B2, “Pharmaceutically acceptable salts of methyl (3-{ [[3-(6-amino- 2-butoxy-8-oxo-7,8-dihydro-9H-purin-9-yl) propyl] (3-morpholin-4-ylpropyl) amino] methyl }phenyl) acetate and their use in therapy” (AstraZeneca AB, priority 2007, dated 2014).

Common to all, as to assay type: physicochemical
Data set [1] can be described thus: Particle size reduction (micronisation) in 2" Spiral Jet Mill. As to conditions: for Yield (micronisation): constant flow feed, venturi 5 bar, grind 1-2 bar. How it is done:
Particle size reduction using a 2″ Spiral Jet Mill (SJM) was carried out on the following three test substances: the monohydrochloride salt according to Example 1 (invention salt), the dimaleate salt according to Example 3 (invention salt) and the free base compound, methyl (3-{[[3-(6-amino-2-butoxy-8-oxo-7,8-dihydro-9H-purin-9-yl)propyl](3-morpholin-4-ylpropyl)amino]methyl}phenyl)acetate (comparison compound).
A sieved batch of test substance was fed into the jet mill chamber, via a venturi feed system, by a vibratory feeder. Micronisation was achieved by particle collisions brought about by compressed gas (nitrogen) forced through angled nozzles in the jet mill chamber. Particles of different sizes develop different speeds and momentum and as the particle size is reduced the particles spiral towards the centre of the jet mill and exit via an exhaust into a collection bin. The process parameters that control the particle size, in addition to the inherent properties of the compound to be micronised, are the feed rate, grinding pressure and venturi pressure and these are summarised in Table I following.

A short description of data set [2]: Particle size measurement by laser diffraction (Malvern Scirocco) after micronisation. As to conditions: after jet milling; pressure 4 bar (comparison) or 1.5 bar (salts). How it is done: Particle size reduction (micronisation) was performed in a jet mill in which pressurised gas was used to make the substance particles collide at high speed in order to effect particle size reduction. Particle size measurements were performed with laser diffraction using a Malvern Scirocco instrument.

Data set [3] is described as follows: Measurement of fine particle fraction (FPF) with Next Generation Impactor and HPLC. As to conditions: for Delivered amount: 60 liters/min for 2 seconds; for FPF (% < 5 μm/delivered dose), Average over NGI's: average of NGI1 and NGI2.
Experimental: Measurement of FPF, starting from substance as received, was carried out according to the following series of steps:
Doses of 1-2 mg were weighed manually (without scraping) into the cavities of a prototype inhaler (see below). Two experiments were run for each test substance and two doses were used in each experiment and, thus, in total, four doses of each test substance were used in the experiments. The samples were dried in nitrogen gas atmosphere overnight before conducting the experiments.
The Next Generation Impactor, NGI, was used for the fine particle assessment. […] Two NGI impactors were used, one per experiment.
A simple prototype inhaler was used for the tests, consisting of an L-shaped cylindrical channel, comprising a vertical component and a horizontal component. The prototype inhaler was fitted via an USP-inlet to the NGI impactor. The micronised powder was transferred through the vertical channel into the bend of the prototype inhaler, (i.e. the bend of the L-shaped channel).
Each dose of 1-2 mg of powder was drawn with an airflow of 60 liters/min for 2 seconds (measured at the entrance of the induction port), entraining the powder located in the bend, and the aerosol thereafter moved through the horizontal component of the channel, through a spiral mouthpiece and into the NGI impactor.
The withdrawal and collection of the drug powders was performed in an isolator (glove) box with a relative humidity level below 2%.
The FPF's, as defined in the pharmacopoeia references above, were calculated.

Each structure is given as a SMILES string.

Regarding `CCCCOc1nc(N)c2[nH]c(=O)n(CCCN(CCCN3CCOCC3)Cc3cccc(CC(=O)OC)c3)c2n1` [Comparison compound, methyl (3-{[[3-(6-amino-2-butoxy-8-oxo-7,8-dihydro-9H-purin-9-yl)propyl](3-morpholin-4-ylpropyl)amino]methyl}phenyl)acetate, reference compound], in data set [1], the “Micronisation behaviour (build-up/blocking of mill)” value (shortened to “Micronisation behaviour”) is reported as “the mill became plugged” and the “Yield (micronisation)” value is listed as 1.7%. Moreover, in data set [2], the “d(0.1)” value was determined as 0.6 μm, the “d(0.5)” value was found to be 1.7 μm and the “d(0.9)” value is recorded as 4.1 μm. Besides, in data set [3] (NGI1), the “Amount particles < 5 μm, extrapolated” value is 139 µg; the “Collected in stage 3-8 (<4.5 μm)” value came out at 131 µg; the “FPF (% < 5 μm/delivered dose)” value was determined as 19.3%; the Delivered amount stood at 720 µg. Further, in data set [3] (NGI2), the “Amount particles < 5 μm, extrapolated” value was 189 µg; the “Collected in stage 3-8 (<4.5 μm)” value amounted to 178 µg; the “FPF (% < 5 μm/delivered dose)” value stood at 13.6%; the Delivered amount stood at 1396 µg. For the same compound, the “FPF (% < 5 μm/delivered dose), Average over NGI's” value in data set [3] came to 16.4%.

In the case of `CCCCOc1nc(N)c2[nH]c(=O)n(CCCN(CCCN3CCOCC3)Cc3cccc(CC(=O)OC)c3)c2n1.O=C(O)/C=C\C(=O)O.O=C(O)/C=C\C(=O)O` [Dimaleate salt, methyl (3-{[[3-(6-amino-2-butoxy-8-oxo-7,8-dihydro-9H-purin-9-yl)propyl](3-morpholin-4-ylpropyl)amino]methyl}phenyl)acetate dimaleate], in data set [1], the “Micronisation behaviour” value is reported as “readily micronised” and the “Yield (micronisation)” value was found to be 48%.

For the compound `Br.CCCCOc1nc(N)c2[nH]c(=O)n(CCCN(CCCN3CCOCC3)Cc3cccc(CC(=O)OC)c3)c2n1` [Monohydrobromide, methyl (3-{[[3-(6-amino-2-butoxy-8-oxo-7,8-dihydro-9H-purin-9-yl)propyl](3-morpholin-4-ylpropyl)amino]methyl}phenyl)acetate monohydrobromide], in data set [2], the “d(0.1)” value is 0.8 μm, the “d(0.5)” value was 1.9 μm and the “d(0.9)” value was 4.1 μm. In data set [3] (NGI1), the “Amount particles < 5 μm, extrapolated” value is 332 µg; the “Collected in stage 3-8 (<4.5 μm)” value was determined as 319 µg; the “FPF (% < 5 μm/delivered dose)” value is on record as 29.6%; the Delivered amount came out at 1123 µg. In data set [3] (NGI2), the “Amount particles < 5 μm, extrapolated” value is 427 µg; the “Collected in stage 3-8 (<4.5 μm)” value amounted to 414 µg; the “FPF (% < 5 μm/delivered dose)” value amounted to 43.8%; the Delivered amount came to 975 µg. The “FPF (% < 5 μm/delivered dose), Average over NGI's” value in data set [3] is recorded as 36.7%.

Take `CCCCOc1nc(N)c2[nH]c(=O)n(CCCN(CCCN3CCOCC3)Cc3cccc(CC(=O)OC)c3)c2n1.Cl` [Monohydrochloride, methyl (3-{[[3-(6-amino-2-butoxy-8-oxo-7,8-dihydro-9H-purin-9-yl)propyl](3-morpholin-4-ylpropyl)amino]methyl}phenyl)acetate monohydrochloride]: in data set [1], the “Micronisation behaviour” value is “readily micronised” and the “Yield (micronisation)” value amounted to 85%. Besides, in data set [2], the “d(0.1)” value is 0.9 μm, the “d(0.5)” value was 1.8 μm and the “d(0.9)” value is recorded as 3.5 μm. Also, in data set [3] (NGI1), the “Amount particles < 5 μm, extrapolated” value is 393 µg; the “Collected in stage 3-8 (<4.5 μm)” value came out at 383 µg; the “FPF (% < 5 μm/delivered dose)” value is 31.3%; the Delivered amount amounted to 1257 µg. For the same compound, in data set [3] (NGI2), the “Amount particles < 5 μm, extrapolated” value was 402 µg; the “Collected in stage 3-8 (<4.5 μm)” value was found to be 392 µg; the “FPF (% < 5 μm/delivered dose)” value was determined as 40.6%; the Delivered amount was determined as 992 µg. The “FPF (% < 5 μm/delivered dose), Average over NGI's” value in data set [3] was determined as 35.9%.
